We go through eight molecules from PubChem BioAssay (NCI).

Several values for one entry are separate records, joined by “and”; a condition that tells them apart may be missing. Equal values may be shown once.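 1) Cells in 96-well plates. 2) Compound, 48 h, 5 concentrations. 3) Linear interpolation between surrounding doses. 4) Unreached endpoint = highest concentration. Here, GI50 denotes the concentration required for 50% inhibition of growth. Definition used: TGI = concentration required for complete inhibition of growth.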

Among the test systems are CCRF-CEM leukemia; COLO 205 colon; HCC-2998 colon; HOP-62 NSCLC; MALME-3M melanoma; NCI-H226 lung; NCI-H522 lung; RXF 393 renal; SK-MEL-2 melanoma; SR leukemia.
Common to all, as to experiment: NCI anticancer screen, dose series, 48 h

For the molecule `CC(C)(C)c1ccc(C(O)c2ccc(C(C)(C)C)cc2)cc1`, the TGI in the test on CCRF-CEM leukemia was determined as 38.9 µM; with COLO 205 colon it was 26.7 µM; in the test on HCC-2998 colon, 35.6 µM; with HOP-62 NSCLC, 30 µM; in the test on MALME-3M melanoma, 30.4 µM; in the test with NCI-H226 lung, 19.5 µM. Also, the TGI in the test with NCI-H522 lung is 22 µM; with RXF 393 renal, 31.2 µM; with SK-MEL-2 melanoma, 29.4 µM; in the test on SR leukemia it was 41.7 µM.
For `COc1ccc([N+](=O)[O-])c(S(=O)(=O)c2ccc(Cl)cc2)n1`, the GI50 was 2.93 µM with CCRF-CEM leukemia; 1.96 µM in the test on COLO 205 colon; 8.38 µM in the test on HCC-2998 colon; 16.6 µM in the test on HOP-62 NSCLC; 2 µM with MALME-3M melanoma; 10.2 µM in the test on NCI-H226 lung. In addition, the GI50 in the test on NCI-H522 lung is 1.86 µM; in the test with RXF 393 renal, 4.45 µM; with SK-MEL-2 melanoma, 11.4 µM; in the test on SR leukemia, 3 µM. The TGI in the test on CCRF-CEM leukemia was 13.8 µM; in the test on COLO 205 colon, 3.88 µM; in the test with HCC-2998 colon, 23.8 µM; in the test with HOP-62 NSCLC, 30.5 µM; with MALME-3M melanoma it was 4.08 µM; with NCI-H226 lung it was 36 µM. Further, the TGI in the test with NCI-H522 lung is 3.77 µM; with RXF 393 renal, 16.2 µM; with SK-MEL-2 melanoma it was 24.3 µM; in the test with SR leukemia, greater than 100 µM.
Take `CCCc1nc2c(C)cc(-c3nc4ccccc4n3C)cc2n1Cc1ccc(-c2ccccc2C(=O)O)cc1`: the GI50 in the test with CCRF-CEM leukemia was 22.7 µM; in the test on COLO 205 colon, 42.4 µM; in the test with HCC-2998 colon it was 51.9 µM; with HOP-62 NSCLC, 43.5 µM; in the test on MALME-3M melanoma it was 45.9 µM; in the test on NCI-H226 lung, 32.4 µM. For the same molecule, the GI50 was 22 µM in the test on NCI-H522 lung, 22.4 µM with RXF 393 renal, 36.6 µM with SK-MEL-2 melanoma and 28.6 µM with SR leukemia. Moreover, the TGI in the test on CCRF-CEM leukemia, with COLO 205 colon, with HCC-2998 colon, in the test with HOP-62 NSCLC, with MALME-3M melanoma and with NCI-H226 lung was greater than 100 µM each time. Moreover, the TGI was 46.5 µM in the test with NCI-H522 lung, 82.2 µM in the test with RXF 393 renal, 97.3 µM in the test with SK-MEL-2 melanoma and greater than 100 µM with SR leukemia.
As to `NC1=N/C(=C2/CCNC(=O)c3[nH]c(Br)cc32)C(=O)N1`, the TGI in the test on CCRF-CEM leukemia, in the test on COLO 205 colon, with HCC-2998 colon, in the test on HOP-62 NSCLC, with MALME-3M melanoma and in the test on NCI-H226 lung was greater than 100 µM in each case. For the same molecule, the TGI with NCI-H522 lung is 32.5 µM and 17.4 µM; in the test on RXF 393 renal, greater than 100 µM; in the test with SK-MEL-2 melanoma, 8.72 µM and 26.3 µM; in the test with SR leukemia, 2.25 µM. Moreover, the GI50 was 12.6 µM and 44.3 µM in the test on COLO 205 colon; 8.82 µM and 25.1 µM with MALME-3M melanoma; > 64 µM and 21.8 µM in the test with NCI-H226 lung; 7.44 µM and 2.54 µM in the test with NCI-H522 lung; 0.975 µM and 2.9 µM in the test with SK-MEL-2 melanoma.
Take `COc1ccc2c(c1)CCC1C2CC[C@]2(C)/C(=N/OC(=O)Cc3ccccc3)CCC12` (stereo not given in full): the GI50 in the test with CCRF-CEM leukemia is 13.6 µM; in the test on COLO 205 colon, 21.7 µM; with HCC-2998 colon, 19.8 µM; in the test with HOP-62 NSCLC it was 17.2 µM; in the test with MALME-3M melanoma, 20.7 µM; with NCI-H226 lung it was 18.8 µM. The GI50 is 12.2 µM with NCI-H522 lung, 23.3 µM in the test on RXF 393 renal, 18.6 µM in the test with SK-MEL-2 melanoma and 14.2 µM in the test with SR leukemia. Moreover, the TGI in the test on CCRF-CEM leukemia worked out at 49.9 µM; in the test with COLO 205 colon, 58.6 µM; in the test on HCC-2998 colon, 35.6 µM; in the test with HOP-62 NSCLC, 31.6 µM; in the test on MALME-3M melanoma, 37.4 µM; in the test with NCI-H226 lung it was 36.5 µM. Also, the TGI came out at 32.8 µM in the test with NCI-H522 lung, 47.9 µM in the test on RXF 393 renal, 48.6 µM in the test with SK-MEL-2 melanoma and 33.3 µM in the test on SR leukemia.
Regarding `COc1cc(/C=C2\COc3ccc(O)c(O)c3C2=O)cc(OC)c1`, the GI50 in the test on CCRF-CEM leukemia was 0.505 µM; in the test on COLO 205 colon it was 1.75 µM; in the test with HCC-2998 colon, 1.85 µM; in the test on HOP-62 NSCLC it was 3.66 µM; with MALME-3M melanoma, 1.82 µM; with NCI-H226 lung it was 4.94 µM. For the same molecule, the GI50 in the test on NCI-H522 lung was 0.171 µM; with RXF 393 renal, 1.47 µM; with SK-MEL-2 melanoma, 1.93 µM; with SR leukemia, 0.852 µM. For the same molecule, the TGI is greater than 100 µM with CCRF-CEM leukemia; 5.68 µM in the test on COLO 205 colon; 3.5 µM in the test with HCC-2998 colon; 11.6 µM in the test on HOP-62 NSCLC; 6.08 µM in the test with MALME-3M melanoma; 28.2 µM with NCI-H226 lung. The TGI in the test with NCI-H522 lung came to 0.403 µM; in the test with RXF 393 renal it was 3.01 µM; in the test on SK-MEL-2 melanoma it was 5.23 µM; in the test with SR leukemia, 12.5 µM.
Turning to `COc1ccc(/C(C)=N/OC(=O)c2c(-c3ccccc3Cl)noc2C)cc1CN1CCOCC1`, the TGI was greater than 100 µM with CCRF-CEM leukemia; 31.3 µM in the test with COLO 205 colon; 93.8 µM in the test on HCC-2998 colon; 62.1 µM with HOP-62 NSCLC; 43.7 µM with MALME-3M melanoma; greater than 100 µM in the test with NCI-H226 lung. Further, the TGI with NCI-H522 lung is 48.3 µM; in the test on RXF 393 renal it was 77.8 µM; in the test with SK-MEL-2 melanoma, 34.2 µM; with SR leukemia it was greater than 100 µM.
With `COC(=O)CCC/C=C\C[C@H]1C=CC(=O)/C1=C/C[C@@H](O)C/C=C\CC(F)(F)F`, the GI50 is 0.345 µM with CCRF-CEM leukemia; 2.03 µM with COLO 205 colon; 2 µM in the test on HCC-2998 colon; 1.89 µM with HOP-62 NSCLC; 2.39 µM in the test on MALME-3M melanoma; 2.08 µM in the test on NCI-H226 lung. The GI50 with NCI-H522 lung is 1.06 µM; in the test on RXF 393 renal it was 1.98 µM; in the test with SK-MEL-2 melanoma, 2.55 µM; in the test with SR leukemia it was 0.384 µM. The TGI in the test with CCRF-CEM leukemia stood at 5.27 µM; in the test with COLO 205 colon it was 4.58 µM; in the test on HCC-2998 colon it was 3.5 µM; in the test on HOP-62 NSCLC it was 5.16 µM; with MALME-3M melanoma, 7.03 µM; in the test with NCI-H226 lung it was 4.1 µM. For the same molecule, the TGI in the test on NCI-H522 lung was found to be 2.57 µM; in the test on RXF 393 renal it was 3.66 µM; with SK-MEL-2 melanoma, 7.53 µM; in the test on SR leukemia it was 5.44 µM.
